Data taken from US20100234455A1, “Histone Deacetylase Inhibitors” (Errant Gene Therapeutics, LLC, priority 2004, published 2010).

Assays:
[1] = system: LNCaP cells (human prostate cancer cells); experiment: p53 acetylation, p21 and Bax effects in LNCaP cells; assay type: cell-based
[2] = system: PC-3 cells; experiment: Bax and p21 activation in PC-3 cells (p53-/-, no HDAC2); assay type: cell-based; details: do not express HDAC2
[3] = system: tumors; details: cited from earlier work
[4] = system: HDAC; details: cited from earlier work
[5] = system: rat fibroblasts; details: cited from earlier work

O=C(C=CC=CC=Cc1ccccc1)NO [7-phenyl-2,4,6-heptatrienoylhydroxamic acid]
level of histone acetylation [1]: increasing the level of histone acetylation
Bax mitochondrial translocation and cleavage ([1]; LNCaP cells): induced Bax mitochondrial translocation and cleavage
cell cycle arrest ([1]; LNCaP cells): cell cycle arrest, primarily at G2/M interface
degradation of HDAC2 ([1]; LNCaP cells): induction of selective degradation of HDAC2
levels of total p53 ([1]; LNCaP cells): increases the levels of total p53
p21 levels ([1]; LNCaP cells): p53-dependent increase in p21 levels
steady state level of cytosolic Bax ([1]; LNCaP cells): increased the steady state level of cytosolic Bax
acetylation of p53 at Lys320 ([1]; Lys320): not Lys320
acetylation of p53 at Lys373 and Lys382 ([1]; Lys373 and Lys382): stabilizes the acetylation of p53 at amino acids Lys373 and Lys382
p53 dependent activation of Bax [2]: absent
p53 independent p21 activation [2]: p53 independent p21 activation was observed

O=C(CCCCCCC(=O)Nc1ccccc1)NO [SAHA, suberoylanilide hydroxamic acid]
formation of tumors in mice [3]: prevent the formation of tumors in mice
HDAC activity [4]: HDAC activity is inhibited

CC(/C=C/C(=O)NO)=C\[C@@H](C)C(=O)c1ccc(N(C)C)cc1 [TSA, trichostatin A]
cell cycle arrest of rat fibroblasts [5]: causes arrest of rat fibroblasts at the G1 and G2 phases of the cell cycle
formation of tumors in mice [3]: prevent the formation of tumors in mice
HDAC activity [4]: HDAC activity is inhibited
Bax mitochondrial translocation and cleavage ([1]; LNCaP cells): nor did it affect Bax translocation and cleavage
cell cycle arrest ([1]; LNCaP cells): induced p21 and cell cycle arrest
p21 levels ([1]; LNCaP cells): induced p21
steady state level of cytosolic Bax ([1]; LNCaP cells): did not alter Bax levels
p53 dependent activation of Bax [2]: absent
p53 independent p21 activation [2]: p53 independent p21 activation was observed
